Experimental data as given in patent US4820694A, “Modifications of 3-O-demethylmycinose in macrocin and lactenocin” (priority 1986, dated 1989).
Values after ≈ are worked out from the molar mass of the structure shown. Read-outs that look alike come from different tables or passages of the source.

Experiments:
[1] = test system: Streptococcus pneumoniae Park I; experiment: microbe, parasite or virus in culture; assay type: cell-based; details: Streptococcus pneumoniae
Procedure: (§1) The MIC's in Table III were determined by standard agar-dilution assays. The MIC's in Table IV were obtained using conventional brothdilution microtiter tests.

[2] = test system: Staphylococcus aureus S13E; experiment: microbe, parasite or virus in culture; assay type: cell-based; details: Staphylococcus aureus, S13E
Procedure: as §1

[3] = test system: Mycoplasma gallisepticum 29C; experiment: broth-dilution microtiter MIC test; assay type: cell-based; details: Mycoplasmoides gallisepticum, 29C
Procedure: as §1

[4] = test system: Pasteurella multocida 60A; experiment: broth-dilution microtiter MIC test; assay type: cell-based; details: Pasteurella multocida, 60A
Procedure: as §1

Mycoplasma synoviae 40A = experiment: broth-dilution microtiter MIC test; assay type: cell-based; details: Mycoplasmopsis synoviae, 40A
Procedure: as §1

[5] = test system: Staphylococcus aureus 19C; experiment: broth-dilution microtiter MIC test; assay type: cell-based; details: Staphylococcus aureus, 19C
Procedure: as §1

[6] = test system: Pasteurella multocida 22A; experiment: broth-dilution microtiter MIC test; assay type: cell-based; details: Pasteurella multocida, 22A
Procedure: as §1

[7] = test system: Mycoplasma gallisepticum 15E; experiment: broth-dilution microtiter MIC test; assay type: cell-based; details: Mycoplasmoides gallisepticum, 15E
Procedure: as §1

[8] = test system: Pasteurella multocida 68C; experiment: broth-dilution microtiter MIC test; assay type: cell-based; details: Pasteurella multocida, 68C
Procedure: as §1

[9] = test system: Mycoplasma gallisepticum 36H; experiment: broth-dilution microtiter MIC test; assay type: cell-based; details: Mycoplasmoides gallisepticum, 36H
Procedure: as §1

[10] = test system: Pasteurella hemolytica 22C; experiment: broth-dilution microtiter MIC test; assay type: cell-based; details: Pasteurella, 22C
Procedure: as §1

[11] = test system: Pasteurella multocida 40G; experiment: broth-dilution microtiter MIC test; assay type: cell-based; details: Pasteurella multocida, 40G
Procedure: as §1

[12] = test system: Pasteurella hemolytica 41D; experiment: broth-dilution microtiter MIC test; assay type: cell-based; details: Pasteurella, 41D
Procedure: as §1

[13] = test system: Pasteurella hemolytica 23C; experiment: broth-dilution microtiter MIC test; assay type: cell-based; details: Pasteurella, 23C
Procedure: as §1

[14] = test system: Bordetella bronchiseptica; experiment: broth-dilution microtiter MIC test; assay type: cell-based; details: Bordetella bronchiseptica; broth-dilution microtiter; read-out: MIC
Procedure: as §1

Streptococcus sp. 19F = experiment: broth-dilution microtiter MIC test; assay type: cell-based; details: Streptococcus, SP.19F
Procedure: as §1

[15] = test system: Pasteurella multocida 17E; experiment: broth-dilution microtiter MIC test; assay type: cell-based; details: Pasteurella multocida, 17E
Procedure: as §1

Mycoplasma hyorhinis 29E = experiment: broth-dilution microtiter MIC test; assay type: cell-based; details: Mycoplasma, 29E
Procedure: as §1

[16] = test system: Streptococcus pyogenes C203; experiment: standard agar-dilution MIC assay; assay type: cell-based; details: Streptococcus pyogenes, C203
Procedure: as §1

[17] = test system: Streptococcus Group D X66; experiment: standard agar-dilution MIC assay; assay type: cell-based; details: read-out: MIC
Procedure: as §1

[18] = test system: Staphylococcus aureus X1.1; experiment: standard agar-dilution MIC assay; assay type: cell-based; details: Staphylococcus aureus, X1.1
Procedure: as §1

[19] = test system: Haemophilus influenzae 76; experiment: standard agar-dilution MIC assay; assay type: cell-based; details: Haemophilus influenzae, 76
Procedure: as §1

[20] = test system: Staphylococcus aureus X400; experiment: standard agar-dilution MIC assay; assay type: cell-based; details: Staphylococcus aureus, X400
Procedure: as §1

[21] = test system: Streptococcus Group D 9960; experiment: standard agar-dilution MIC assay; assay type: cell-based; details: GROUPD9960, read-out: MIC
Procedure: as §1

[22] = test system: Staphylococcus aureus V41; experiment: standard agar-dilution MIC assay; assay type: cell-based; details: Staphylococcus aureus, V41
Procedure: as §1

[23] = test system: Haemophilus influenzae C.L.; experiment: standard agar-dilution MIC assay; assay type: cell-based; details: Haemophilus influenzae
Procedure: as §1

[24] = test system: Klebsiella pneumoniae X68; experiment: standard agar-dilution MIC assay; assay type: cell-based; details: Klebsiella pneumoniae, X68; agar-dilution; read-out: MIC
Procedure: as §1

[25] = test system: Pseudomonas aeruginosa X239; experiment: standard agar-dilution MIC assay; assay type: cell-based; details: Pseudomonas aeruginosa, X239; agar-dilution; read-out: MIC
Procedure: as §1

[26] = test system: Staphylococcus epidermidis EPI1; experiment: standard agar-dilution MIC assay; assay type: cell-based; details: Staphylococcus epidermidis, EPI1
Procedure: as §1

Escherichia coli EC14 = experiment: standard agar-dilution MIC assay; assay type: cell-based; details: agar-dilution, read-out: MIC
Procedure: as §1

[27] = test system: Streptococcus pyogenes C203; experiment: protection of mice experimentally infected with S. pyogenes C203; assay type: in vivo; details: mice, mg/kg × 2, doses given 1 and 4 hours postinfection, read-out: ED50
Procedure: The formula 1 compounds have shown in vivo antimicrobial activity against experimentally-induced infections in laboratory animals. When two doses of test compound were administered to mice experimentally infected with S. pyrogenes C203, the activity observed was measured as an ED50 value [effective dose in mg/kg to protect 50% of the test animals: see Warren Wick, et al., J. Bacteriol. 81, 233-235 (1961)].
^a mg/kg × 2; doses given 1 and 4 hours postinfection

[28] = broth-dilution microtiter, read-out: MIC

Row | Structure (SMILES) | MIC [2] [µg/mL] | MIC [3] [µg/mL] | MIC (Mycoplasma synoviae 40A) [µg/mL] | MIC [5] [µg/mL] | MIC [7] [µg/mL] | MIC [8] [µg/mL] | MIC [9] [µg/mL] | MIC [11] [µg/mL] | MIC [14] [µg/mL] | MIC (Streptococcus sp. 19F) [µg/mL] | MIC (Mycoplasma hyorhinis 29E) [µg/mL] | MIC [16] [µg/mL] | MIC [17] [µg/mL] | MIC [18] [µg/mL] | MIC [19] [µg/mL] | MIC [20] [µg/mL] | MIC [21] [µg/mL] | MIC [22] [µg/mL] | MIC [24] [µg/mL] | MIC [25] [µg/mL] | other results
1 | CCC1OC(=O)CC(O)C(C)C(OC2OC(C)C(O)C(N(C)C)C2O)C(CC=O)CC(C)C(=O)C=CC(C)=CC1COC1OC(C)C(OC(C)=O)C(OC(=O)COc2ccccc2)C1OC (centres unmarked) [Compound 38, 4"-O-Acetyl-3"-O-phenoxyacetyl-lactenocin] | 1 (≈ 1.07 µM) | 0.39 (≈ 0.418 µM) | 0.78 (≈ 0.835 µM) | 3.12 (≈ 3.34 µM) | 25 (≈ 26.8 µM) | 12.5 (≈ 13.4 µM) | 12.5 (≈ 13.4 µM) | 25 (≈ 26.8 µM) | > 50 | 0.78 (≈ 0.835 µM) | 12.5 (≈ 13.4 µM) | 0.5 (≈ 0.535 µM) | 2 (≈ 2.14 µM) | 1 (≈ 1.07 µM) | 8 (≈ 8.56 µM) | 2 (≈ 2.14 µM) | 2 (≈ 2.14 µM) | 1 (≈ 1.07 µM) | > 128 | > 128 | MIC [1]: 0.25 µg/mL (≈ 0.268 µM); MIC [4]: 12.5 µg/mL (≈ 13.4 µM); MIC [6]: 25 µg/mL (≈ 26.8 µM); MIC [10]: 25 µg/mL (≈ 26.8 µM); MIC [12]: 50 µg/mL (≈ 53.5 µM); MIC [13]: 25 µg/mL (≈ 26.8 µM); MIC [15]: 25 µg/mL (≈ 26.8 µM); MIC [23]: 16 µg/mL (≈ 17.1 µM); MIC [26]: 1 µg/mL (≈ 1.07 µM); MIC (Escherichia coli EC14): > 128 µg/mL
2 | CCC1OC(=O)CC(O)C(C)C(OC2OC(C)C(O)C(N(C)C)C2OC(C)=O)C(CC=O)CC(C)C(=O)C=CC(C)=CC1COC1OC(C)C(OC(C)=O)C(OC(=O)COc2ccccc2)C1OC (centres unmarked) [Compound 37, 2',4"-Di-O-acetyl-3"-O-phenoxyacetyllactenocin] | 1 (≈ 1.02 µM) | 0.195 (≈ 0.2 µM) | 0.78 (≈ 0.799 µM) | 1.56 (≈ 1.6 µM) | 6.25 (≈ 6.4 µM) | 12.5 (≈ 12.8 µM) | 12.5 (≈ 12.8 µM) | 25 (≈ 25.6 µM) | > 50 | 0.78 (≈ 0.799 µM) | 6.25 (≈ 6.4 µM) | 0.5 (≈ 0.512 µM) | 1 (≈ 1.02 µM) | 1 (≈ 1.02 µM) | 4 (≈ 4.1 µM) | 2 (≈ 2.05 µM) | 2 (≈ 2.05 µM) | 1 (≈ 1.02 µM) | > 128 | > 128 | MIC ([1]; agar-dilution, read-out: MIC): 0.12 µg/mL (≈ 0.123 µM); MIC [4]: 25 µg/mL (≈ 25.6 µM); MIC [6]: 25 µg/mL (≈ 25.6 µM); MIC [10]: 25 µg/mL (≈ 25.6 µM); MIC [12]: 25 µg/mL (≈ 25.6 µM); MIC [13]: 25 µg/mL (≈ 25.6 µM); MIC [15]: 25 µg/mL (≈ 25.6 µM); MIC [23]: 16 µg/mL (≈ 16.4 µM); MIC [26]: 1 µg/mL (≈ 1.02 µM); MIC (Escherichia coli EC14): > 128 µg/mL
3 | CCC1OC(=O)CC(O)C(C)C(OC2OC(C)C(O)C(N(C)C)C2O)C(CC=O)CC(C)C(=O)C=CC(C)=CC1COC1OC(C)C(OC(=O)CC(C)C)C(OC(=O)CC(C)C)C1OC (centres unmarked) [Compound 28, 3",4"-Di-O-isovaleryl-lactenocin] | 2 (≈ 2.16 µM) | 1.56 (≈ 1.68 µM) | 12.5 (≈ 13.5 µM) | 6.25 (≈ 6.75 µM) | 25 (≈ 27 µM) | 50 (≈ 54 µM) | 50 (≈ 54 µM) | 50 (≈ 54 µM) | > 50 | 3.12 (≈ 3.37 µM) | 6.25 (≈ 6.75 µM) | 2 (≈ 2.16 µM) | 4 (≈ 4.32 µM) | 2 (≈ 2.16 µM) | 64 (≈ 69.1 µM) | 4 (≈ 4.32 µM) | 4 (≈ 4.32 µM) | 2 (≈ 2.16 µM) | > 128 | > 128 | ED50 ([27]; C203, Oral): 21.4 mg/kg; ED50 ([27]; C203, sc, Subcutaneous): > 6.25 mg/kg; MIC [1]: 0.5 µg/mL (≈ 0.54 µM); MIC ([4]; broth-dilution microtiter, Avian isolate, read-out: MIC): > 50 µg/mL; MIC [6, 28]: > 50 µg/mL; MIC [10, 28]: > 50 µg/mL; MIC [12, 28]: > 50 µg/mL; MIC [13, 28]: > 50 µg/mL; MIC ([15]; broth-dilution microtiter, Bovine isolate, read-out: MIC): > 50 µg/mL; MIC ([23]; agar-dilution, Ampicillin-sensitive strain, read-out: MIC): 128 µg/mL (≈ 138 µM); MIC [26]: 2 µg/mL (≈ 2.16 µM); MIC (Escherichia coli EC14): > 128 µg/mL
